The test system of assay [1] is live UACC-62 human melanoma cells. Briefly: Organelle-binding test: subcellular localization of styryl library compounds by fluorescence microscopy. The class given is cell-based. The following applies: for experimentally determined localization (subscript): mitochondrial vs non-mitochondrial, live UACC-62 cells; for representative localization: FIG. 5, live UACC-62 cells. More on the design: key to experimentally determined localization (subscript): The subscript m indicates experimentally determined mitochondrial localization; The subscript o indicates experimentally determined non-mitochondrial localization. On the procedure:
The synthesis was designed so that the reaction mixture can be used directly in biological screening; toxic catalysts (e.g., such as strong acids, bases, and metals) were avoided, and most of the low-boiling point solvents and catalysts (e.g., pyrrolidine) were removed during the microwave reaction, leaving only DMSO, a common solvent for biological sample preparation. In some embodiments, without further purification, the library compounds were incubated with live UACC-62 human melanoma cells growing on glass bottom 96-well plates, and the localizations of the different compounds in the cells were determined using an Axiovert (Carl Zeiss, Inc., Thornwood, N.Y.) microscope (λex=405, 490, and 570 nm; λem>510 nm) with a 100× Zeiss oil immersion objective. […] The images in FIG. 5 show cells stained with selected fluorescent compounds.
Unless otherwise noted in this example, the materials and solvents were obtained from commercial suppliers and were used without further purification. The plate reader used in this example was a Spectra Max Gemini XSF (Molecular Devices, Corp., Sunnyvale, Calif.). In preferred embodiments, for organelle-binding tests, UACC-62 melanoma cells were selected amongst a panel of 60 human cancer cell lines, because their well-spread morphology on glass made them ideally suited for imaging purposes as well as their relevance to biomedical research. (See e.g., R. H. Shoemaker et al., Development of human tumor cell line panels for use in disease oriented drug screening. In: Hall, T. ed., Prediction of Response to Anti-cancer Chemotherapy, New York N.Y.: Alan Liss, 265-286 [1988]).
In some of these embodiments, UACC-62 cells (obtained from the Developmental Therapeutics Program at the National Cancer Institute) were grown in RPMI medium supplemented with 10% fetal calf serum. For microscopy, cells were plated on 96 well tissue-culture plates (Falcon) overnight, in RPMI plus 10% fetal calf serum, at 37° C. in 5% CO2/95% air. Cells were incubated with compounds at an approximate concentration of 50 μM for 1 hour.
A Zeiss Axiovert 135M (Carl Zeiss, Inc., Thornwood, N.Y.) inverted fluorescence microscope outfitted with a FITC/TRITC multipass filter cube (Chroma Technology, Corp., Rockingham, Vt.) was used for screening and routine cell biological fluorescence imaging applications. In some embodiments, epifluorescence microscopy was performed using a Zeiss Axiovert epifluorescence microscope equipped with a 20× objective.
The library compounds, without further purification, were incubated with live UACC-62 human melanoma cells growing on glass bottom 96-well plates (Sigma-Aldrich Corp., St. Louis, Mo.), and the localizations of the different compounds in the cells were determined by an inverted fluorescence microscope (λex=405, 490, and 570 nm; λem>510 nm) at 1000× magnification. Based on their morphology and subcellular distribution, the localizations were ascribed to mitochondria, ER (endoplasmic reticulum), nucleoli, nuclear, and cytoplasmic staining patterns such as diffuse (based on the homogenous staining appearance and exclusion from the nucleus), granular (punctate staining pattern, generally associated with the cell margins) or vesicular (heterogeneous staining pattern, generally associated with the nuclear periphery). Localization studies were performed without a priori information of the compounds' molecular structures. It was possible to ascribe the localization of the compounds to nucleus or cytoplasm, as these organelles are clearly discernible with phase contrast optics. Similarly, it was possible to ascribe localization to nucleoli, as these structures appeared as the most prominent, phase-dense structures within the nucleus. Localization to mitochondria was based on the elongated, characteristic shape of these organelles, which stain positive with established mitochondrial-specific fluorescent probes, like […] or JC-1. (L. B. Chen, Methods Cell Bio., 29:103-123 [1989]). […]

Another assay deals with dsDNA. Nature of the assay: Fluorometric titration of styryl dyes with dsDNA in buffer solution. The assay is classed as binding, Salmon. On the procedure: In some embodiments, the synthesis of compounds B was achieved by refusing with the pyridine derivatives and iodomethane for 2 hours, and compound B crystallized out in ethyl acetate. The condensation with aldehydes (A) and compound B was performed by refusing with piperidine for 2 hours in EtOH. After cooling to room temperature, the crystallized compounds were filtered and washed with ethyl acetate. With these purified compounds, the fluorescence intensity change upon addition of DNA was tested.
With a series of concentrations of dsDNA (double stranded DNA) added to compound 1, a linear increase in the fluorescence intensities was observed. (FIG. 17). […] At the highest concentration of DNA tested (50 μg mL^−1), the fluorescence emission reached up to 13.3 times higher than that of the free compound. Briefly, FIGS. 18A-18C show the absorption and fluorescence spectra of compounds 1, 2, and 3 (Dye 1, 2, 3 [50 μM], dsDNA [50 μg mL^−1]). A blue shift of 17 nm in the emission wavelength upon DNA addition was observed, without a significant excitation wavelength shift. The structure of compound 1 includes a 2,4,5-trimethoxy group from the benzaldehyde moiety and a unique adamantyl pyridinium functionality.
Unless otherwise noted, starting materials and solvents were purchased from commercial suppliers, and used without purification. Ethanol (EtOH) and ethyl acetate (EA) from Acros Organics (Fisher Scientific, UK) were used as the reaction solvents without any prior purification. Salmon testes solid dsDNA, and phosphate buffered saline (PBS) (NaCl 120 mM, KCl 2.7 mM, and phosphate buffer 10 mM, pH=7.4 at 24° C.) were purchased from Sigma-Aldrich and needed no further purification. Fluorescence intensities were measured by a Jobin Yvon Horiba FluoroMAX-3 fluorimeter (Horiba Group, Kyoto, Japan) with a quartz cuvette cell (10 mm×10 mm×4.5 cm; Starna (Atascadero, Calif.). ^1H-NMR (200 MHz) spectra were determined on Gemini 200 spectrometer (Varian, Inc., Palo Alto, Calif.). Chemical shifts were reported in parts per million (ppm) relative to the line of a singlet at 2.50 ppm for DMSO-d6 and coupling constants (j) are in Hertz (Hz). The following abbreviations are used for spin multiplicity: s=singlet, d=doublet, t=triplet, m=multiplet, and b=broad. All dye products were identified by LC-MS from Agilent Technology (Palo Alto, Calif.), using a C18 column (20×4.0 mm), with 4 minutes elution using a gradient of 5-95% CH3CN (containing 1% acetic acid)-H2O (containing 1% acetic acid), with UV detector at %=400 nm and an electrospray ionization source.

`C(=Cc1cc[n+](C23CC4CC(CC(C4)C2)C3)cc1)Cc1ccccc1.[Br-]` [Compound A1-B2]: the “experimentally determined localization (subscript)” value (“experimentally” below) in assay [1] was “o”.
With `COc1ccc2c(ccc(/C=C/c3ccc(N(C)C)cc3)[n+]2C)c1.[I-]` [Compound 119], the representative localization result in assay [1] is recorded as “nucleolar”.
For `CN(C)c1ccc(C=Cc2ccc3ccccc3[n+]2C)c2ccccc12.[I-]` [Compound A27-B8], the “experimentally” value in assay [1] was “m”.
Same read-out and setting: the value for `C[n+]1ccc(C=Cc2c[nH]c3ccccc23)cc1.[I-]` [Compound A24-B1] was “o”.
Turning to `COc1cc(OC)c(OC)cc1C=Cc1cc[n+](C)cc1.[I-]` [Compound 4, 1-Methyl-4[2-(2,4,5-trimethoxy-phenyl)-vinyl]pyridinium iodide], the “fluorescence intensity change upon addition of DNA” value with dsDNA is reported as “significantly reduced the DNA response”.
For the molecule `COc1cc(OC)c(OC)cc1C=Cc1cc[n+](C)c2ccccc12.[I-]` [Compound A38-B7], in assay [1], the “experimentally” value is “o”.
As to `C(=Cc1c[nH]c2ccccc12)c1cc[n+](C23CC4CC(CC(C4)C2)C3)cc1.[Br-]` [Compound A24-B2], in assay [1], the representative localization entry is “mitochondria” and the “experimentally” value is “m”.
Consider `Cc1ccnc(-c2cc(C=CCc3ccccc3)cc[n+]2C)c1.[I-]` [Compound A1-B10], for which the “experimentally” value in assay [1] is listed as “m”.
`C[n+]1c(C=Cc2ccc3c(c2)OCO3)ccc2ccccc21.[I-]` [Compound A39-B8]: the “experimentally” value in assay [1] is “o”.
On the same count and under the same terms, the value for `C[n+]1ccc(C=Cc2ccc(OCc3ccccc3)c(OCc3ccccc3)c2)c2ccccc21.[I-]` [Compound A12-B7] was “m”; that for `C[n+]1ccc(C=CCc2ccccc2)cc1.[I-]` [Compound A1-B1] was “o”.
Turning to `CN(C)c1ccc(C=Cc2cc[n+](C)cc2)c2ccccc12.[I-]` [Compound A27-B1], the “experimentally” value in assay [1] was “o”.
With `COc1ccc2c(ccc(C=Cc3ccc(NC(C)=O)cc3)[n+]2C)c1.[I-]` [Compound A18-B9], the “experimentally” value in assay [1] was “o”.
`COc1ccc2ccccc2c1C=Cc1cccc[n+]1C.[I-]` [Compound A23-B3]: the “experimentally” value in assay [1] was “o”.
Turning to `CCc1ccc(C=Cc2ccc(OCc3ccccc3)c(OCc3ccccc3)c2)[n+](C)c1.[I-]` [Compound A12-B5], the “experimentally” value in assay [1] was “o”.
Take `C[n+]1ccc(C=Cc2ccc(OCc3ccccc3)c(OCc3ccccc3)c2)cc1.[I-]` [Compound A12-B1]: in assay [1], the representative localization entry is reported as “mitochondria” and the “experimentally” value was “m”.
Turning to `COc1ccc(C=Cc2ccc3ccccc3[n+]2C)cc1O.[I-]` [Compound A15-B8], the “experimentally” value in assay [1] is reported as “m”.
As to `C[n+]1c(C=Cc2ccc3c(c2)Cc2ccccc2-3)ccc2ccccc21.[I-]` [Compound H28], the representative localization entry in assay [1] is listed as “nuclear”.
As to `Cc1cc(C)[n+](C)c(C=Cc2ccc(OCc3ccccc3)c(OCc3ccccc3)c2)c1.[I-]` [Compound A12-B13], the “experimentally” value in assay [1] is “o”.
Turning to `Cc1cc[n+](C)c(/C=C/c2c[nH]c3ccccc23)c1.[I-]` [Compound A24-B11], the “experimentally” value in assay [1] is reported as “m”.
Consider `Cc1ccnc(-c2cc(C=CC=Cc3ccccc3)cc[n+]2C)c1.[I-]` [Compound A35-B10], for which the “experimentally” value in assay [1] is on record as “o”.
`C[n+]1c(C=Cc2ccc(OCc3ccccc3)c(OCc3ccccc3)c2)ccc2ccccc21.[I-]` [Compound H12]: in assay [1], the representative localization entry was “vesicular”.
Take `Cc1cccc(C=CC=Cc2ccccc2)[n+]1C.[I-]` [Compound A35-B12]: the “experimentally” value in assay [1] is listed as “m”.
Turning to `COc1ccc2ccccc2c1C=Cc1c(C)ccc[n+]1C.[I-]` [Compound A23-B4], in assay [1], the “experimentally” value is listed as “o”.
As to `COc1ccc(C=Cc2cc[n+](C34CC5CC(CC(C5)C3)C4)cc2)c2ccccc12.[Br-]` [Compound A14-B2], the “experimentally” value in assay [1] is recorded as “o”.
On to `COc1cc(OC)c(OC)cc1C=Cc1cc[n+](C)c(-c2cc(C)ccn2)c1.[I-]` [Compound A38-B10], for which the “experimentally” value in assay [1] is “m”.
On to `COc1ccc2c(ccc(C=CC=Cc3ccc(N(C)C)cc3)[n+]2C)c1.[I-]` [Compound 137], for which the representative localization result in assay [1] is on record as “cytosolic”.
Take `C[n+]1c(C=Cc2cccc([N+](=O)[O-])c2)ccc2ccccc21.[I-]` [Compound A21-B8]: the “experimentally” value in assay [1] is on record as “m”.
Same read-out and setting: the value for `C[n+]1ccccc1C=Cc1ccc(OCc2ccccc2)c(OCc2ccccc2)c1.[I-]` [Compound A12-B3] was “m”; that for `Cc1cccc(C=Cc2ccc(OCc3ccccc3)c(OCc3ccccc3)c2)[n+]1C.[I-]` [Compound A12-B12] was “o”.
As to `CC(=O)Nc1ccc(C=Cc2ccc3ccccc3[n+]2C)cc1.[I-]` [Compound A18-B8], the “experimentally” value in assay [1] is reported as “m”.
In the case of `CN(C)c1ccc(C=Cc2ccc3ccccc3[n+]2C)cc1.[I-]` [Compound A19-B8], the “experimentally” value in assay [1] was “o”.
As for `C[n+]1ccc(C=Cc2ccccc2[N+](=O)[O-])c2ccccc21.[I-]` [Compound A20-B7], the “experimentally” value in assay [1] is recorded as “m”.
Regarding `C[n+]1c(C=CCc2ccccc2)ccc2ccccc21.[I-]` [Compound A1-B8], in assay [1], the “experimentally” value is on record as “m”.

The record behind these values is patent US20070111251A1, “Chemical address tags” (priority 2003, published 2007).
